Measured values as given in US20240327446A1, “DEUTERATED NUCLEOSIDE COMPOUNDS AND USE THEREOF” (MEDSHINE DISCOVERY INC., priority 2022, published 2024).

How the values were obtained:
[1] = system: human coronavirus (HCoV) 229E; test: In vitro anti-coronavirus activity test, cytopathic effect (CPE) assay; format: cell-based, human coronavirus (HCoV) 229E in MRC5 cells; details: MRC5, 72 h, read-out: EC50 (median effective concentration)
Description: (§1) To detect the in vitro anti-human coronavirus (HCOV) 229E activity of the compound using the cytopathic effect (CPE) assay, and simultaneously evaluate the cytotoxicity of the compound.
(§2) The test compound was prepared as a 20 mM stock solution using DMSO. The initial testing concentration of the test compound was 50 μM, tested at 8 concentrations with 4-fold gradient dilutions, in duplicate wells. The control compound Remdesivir would be provided by WuXi AppTec. Remdesivir would be tested at 8 concentrations with 3-fold gradient dilutions, in duplicate wells.
(§3) MRC5 cells and coronavirus HCoV 229E were purchased from ATCC. MRC5 cells were cultured in EMEM (Sigma) culture medium supplemented with 10% fetal bovine serum (Excell), 1% double antibiotic (Hyclone), 1% L-glutamine (Gibco), and 1% non-essential amino acids (Gibco). […]
(§4) Cells were seeded in a 96-well microplate at a specific density (Table 1) and cultured overnight in a 5% CO2, 37° C. incubator. […] Cell viability was detected using the CellTiter Glo (Promega) cell viability assay kit. […]
Inhibition rate (%)=(test well reading value−average value of virus control)/(average value of cell control−average value of virus control)×100 […]

[2] = in vitro; format: cell-based; details: human
Description: as §1, §2, §3, §4
Cell viability (%)=(test well reading value−average value of culture medium control)/(average value of cell control−average value of culture medium control)×100 […]

Compound: [2H][C@@]1(O)[C@H](O)[C@@H](COC(=O)C(C)C)O[C@@]1(C#N)c1ccc2c(N)ncnn12 [Compound 1]
- EC50 [1]: 220 nM
- CC50 at 3 days [2]: > 50000 nM
